Data from patent US10004809B2, “Precise delivery of therapeutic agents to cell mitochondria for anti-cancer therapy” (UNIVERSITY OF GEORGIA RESEARCH FOUNDATION, INC., priority 2013, dated 2018).

Tests used:
Solubility study = type: physicochemical
Experimental: Solubility of MITO-DCA in water was checked by preparing different concentration of MITO-DCA ranging from 2 μM to 5 mM in DMSO (0.1-2.5%)-phosphate buffered saline (PBS). At all concentrations, MITO-DCA was transparent.

PC3 cells [1] = experiment: Annexin V/PI apoptosis detection by flow cytometry; type: cell-based, Human; conditions: 50 μM
Experimental: In order to determine whether the enhanced activity of MITO-DCA upon targeting this compound to the mitochondria of cells was due to apoptosis rather than necrosis, an ALEXA FLUOR™ 488-Annexin-V and propidium iodide (PI) cell staining in PC3 and MSC cells was carried out and data were analyzed using flow cytometry (FIG. 4B). As controls, etoposide treated cells were used as early apoptosis population and H2O2 treated cells were marked as late apoptotic or necrotic population. […] There were no late apoptotic or necrotic cells observed with these compounds.
PC3 and MSC cells were seeded at a density of 1×10^6 cells/mL on each well of a six well plate and allowed to grow overnight. Cells were treated with 50 μM Na-DCA, 150 μM TPP-DCA, and 150 μM MITO-DCA for 12 h at 37° C. As positive controls, etoposide (100 μM, incubation time: 12 h) for apoptosis and H2O2 (1 mM, incubation time: 45 min) for necrosis were used. The cells were trypsinized, repeatedly washed, and centrifuged at 1,800 RPM for 3 min, and the supernatants were discarded. Cell density was determined and cells were resuspended in 1× annexin-binding buffer to ˜1×10^6 cells/mL preparing a sufficient volume to have 100 µL per assay. To 100 μL of cell suspension, 5 μL ALEXA FLUOR™ 488 annexin V and 1 µL 100 μg/mL PI working solution were added and incubated for 15 min at room temperature. After the incubation period, 400 μL 1× annexin-binding buffer was added to each sample, samples were gently mixed keeping the samples on ice and the samples were analyzed on the flow cytometer immediately.

PC3 cells [2] = experiment: Cytokine production by treated PC3 cells (ELISA); type: cell-based, Human; conditions: 50 μM, 24 h
Text: Cancer cells recruit several pathways to evade elimination by the immune system (Kim et al., Immunology 121:1-14, 2007). Several mechanisms by which tumor cells escape immunity include upregulation of inhibitory molecules, production of immunosuppressive cytokines, and downregulation of costimulatory molecules (Rabinovich et al., Annu. Rev. Immunol. 25:267-296, 2007). Dendritic cells (DCs), the major players for the initiation of a specific anti-tumor T-cell response, are potential target to tumor-mediated immunosuppression. (Gabrilovich et al., Nat. Med. 2:1096-1103, 1996; Radmayr et al., Int. J. Cancer 63:627-632, 1995; Orsini et al., Cancer Res. 63:4497-4506, 2003.) Lactic acid secretion in highly proliferative glycolytic tumor has the ability to induce alteration in antigen phenotype and functional activity of DCs, which contributes to the suppression of local immunity (Gottfried et al. 2006). Tumor derived lactic acid inhibit the differentiation of monocytes to DCs, impair DC activation and antigen expression and suppress the proliferation, cytokine production and cytotoxic activity of T cells (Fischer et al., Blood 109:3812-3819, 2007). After observing significant and very selective reduction in lactate levels in PCa cells by MITO-DCA, the impact of the reduced lactate producing PC3 cell supernatants on DCs was investigated. […]

Solubility in water (appearance of solution) (Solubility study; 2 μM to 5 mM in DMSO (0.1-2.5%)-phosphate buffered saline (PBS)): transparent
Solubility in an organic solvent (Solubility study; compared with DCA): far higher than that of DCA
Compound: O=C(CCCCC[P+](c1ccccc1)(c1ccccc1)c1ccccc1)NC(COC(=O)C(Cl)Cl)(COC(=O)C(Cl)Cl)COC(=O)C(Cl)Cl.[Br-] [MITO-DCA]
Apoptosis (annexin V/PI) (PC3 cells [1]): complete early apoptosis
Levels of IL-6, IL-10 and TNF-α from PC3 cells, compared with TPP-DCA or Na-DCA (PC3 cells [2]): higher
